In brackets after ≈: the same amount, converted by molar mass. Read-outs that look alike come from different tables or passages of the source. *1 amine or outer side, *2 acyl side, *3 side chain or, on linkers, in order; H or OH if unused. Where a SMILES comes first, the peptide text is derived from it. Bridges are numbered along the chain shown (N, C = ends). [ ]: non-standard residue; d: D form. The star is where a group is joined. ξ: configuration not given here. Phe(3R-OH) = O=C([C@@H](N[*:1])[C@H](O[*:3])c1ccccc1)[*:2]; Phe(4-NO2) = N[C@@H](Cc1ccc([N+](=O)[O-])cc1)C(=O)O; Asn(3S-OH) = NC(=O)[C@@H](O)[C@H](N)C(=O)O; Leu(3R-OH) = CC(C)[C@@H](O)[C@H](N)C(=O)O; d(tBuAla) = CC(C)(C)C[C@@H](N)C(=O)O; tBuAla = CC(C)(C)C[C@H](N)C(=O)O; aThr = C[C@H](O)[C@H](N)C(=O)O; Aic = NC1(C(=O)O)Cc2ccccc2C1; ξIle = CC[C@H](C)C(N)C(=O)O; dOrn = NCCC[C@@H](N)C(=O)O; Ac6c = NC1(C(=O)O)CCCCC1; Cbz = O=C(OCc1ccccc1)*; Bn = c1ccc(C*)cc1
Columns and labels:
[1] = test system: Staphylococcus aureus 133; assay type: cell-based; details: 133
Description: (§1) Determination of the Minimum Inhibitory Concentration (MIC):
(§2) The MIC is determined in the liquid dilution test in accordance with the NCCLS guidelines. Overnight cultures of Staphylococcus aureus 133, Enterococcus faecalis 27159, E. faecium 4147 and Streptococcus pneumoniae G9a are incubated with the desired test substances in a 1:2 dilution series. The MIC determination is carried out with a cell count of 10^5 microbes per ml in Isosensitest medium (Difco, Irvine/USA), with the exception of S. pneumoniae which is tested in BHI broth (Difco, Irvine/USA) with 10% bovine serum with a cell count of 10^6 microbes per ml. The cultures are incubated at 37° C. for 18-24 hours, S. pneumoniae in the presence of 10% CO2.
(§3) The MIC is defined as the lowest concentration of each substance at which visible bacterial growth no longer occurs. The MIC values are reported in μg/ml.

[2] = test system: Streptococcus pneumoniae G9a; assay type: cell-based
Description: as §1, §2, §3

E. faecalis ICB 27159 = assay type: cell-based, Enterococcus faecalis; details: ICB 27159
Description: as §1, §2, §3

E. faecium L4001 = assay type: cell-based, Enterococcus faecium; details: L4001

Structure (SMILES) | MIC S. aureus 133 [1] | MIC S. pneumoniae ([2]; G9a) | MIC E. faecalis ICB 27159 (E. faecalis ICB 27159) | MIC E. faecium L4001 (E. faecium L4001) | MIC S. pneumoniae ([2]; BHI broth with 10% bovine serum, 10^6 microbes per ml, 10% CO2, 37° C., 18-24 hours)
CC[C@H](C)[C@@H]1NC(=O)[C@@H](CCCNC(=N)N)NC(=O)[C@H](CC(C)C)NC(=O)[C@H]([C@H](O)C(C)C)NC(=O)[C@@H](NC(=O)[C@H](Cc2ccc([N+](=O)[O-])cc2)NC(=O)[C@H](N)Cc2ccccc2)[C@@H](c2ccccc2)OC(=O)[C@H](CO)NC(=O)[C@H]([C@H](O)C(N)=O)NC(=O)CNC(=O)[C@H]([C@H](C)O)NC1=O.O=C(O)C(F)(F)F.O=C(O)C(F)(F)F [Example 81, D-Phenylalanyl-4-nitro-L-phenylalanyl-de(1-D-leucyl-2-L-leucyl)lysobactine bistrifluoroacetate] (H-[dF][Phe(4-NO2)][Phe(3R-OH)][Leu(3R-OH)]L[dR]I[aThr]G[Asn(3S-OH)]S; ester 3-C) | 0.5 µg/mL | 0.25 µg/mL | 0.25 µg/mL | 0.25 µg/mL | –
CC[C@H](C)[C@@H]1NC(=O)[C@@H](CCCNC(=N)N)NC(=O)[C@H](CC(C)C)NC(=O)[C@H]([C@H](O)C(C)C)NC(=O)[C@@H](NC(=O)[C@H](CC(C)C)NC(=O)[C@@H](N)Cc2ccccc2)[C@@H](c2ccccc2)OC(=O)[C@H](CO)NC(=O)[C@H]([C@H](O)C(N)=O)NC(=O)CNC(=O)[C@H]([C@H](C)O)NC1=O [Example 48, L-Phenylalanyl-de(1-D-leucyl)lysobactin bistrifluoroacetate] (H-FL[Phe(3R-OH)][Leu(3R-OH)]L[dR]I[aThr]G[Asn(3S-OH)]S; ester 3-C) | 0.125 µg/mL (≈ 0.0954 µM) | 0.125 µg/mL (≈ 0.0954 µM) | 0.5 µg/mL (≈ 0.382 µM) | 0.25 µg/mL (≈ 0.191 µM) | –
CC[C@H](C)[C@@H]1NC(=O)[C@@H](CCCNC(=N)N)NC(=O)[C@H](CC(C)C)NC(=O)[C@H]([C@H](O)C(C)C)NC(=O)[C@@H](NC(=O)[C@H](CC(C)(C)C)NC(=O)[C@H](N)CC(C)(C)C)[C@@H](c2ccccc2)OC(=O)[C@H](CO)NC(=O)[C@H]([C@H](O)C(N)=O)NC(=O)CNC(=O)[C@H]([C@H](C)O)NC1=O.O=C(O)C(F)(F)F.O=C(O)C(F)(F)F [Example 68] (H-[d(tBuAla)][tBuAla][Phe(3R-OH)][Leu(3R-OH)]L[dR]I[aThr]G[Asn(3S-OH)]S; ester 3-C) | 0.125 µg/mL | 0.031 µg/mL | 0.5 µg/mL | 0.5 µg/mL | –
CC[C@H](C)[C@@H]1NC(=O)[C@@H](CCCNC(=N)N)NC(=O)[C@H](CC(C)C)NC(=O)[C@H]([C@H](O)C(C)C)NC(=O)[C@@H](NC(=O)[C@H](CC(C)C)NC(=O)C2(N)Cc3ccccc3C2)[C@@H](c2ccccc2)OC(=O)[C@H](CO)NC(=O)[C@H]([C@H](O)C(N)=O)NC(=O)CNC(=O)[C@H]([C@H](C)O)NC1=O [Example 18, (2-Amino-2,3-dihydro-1H-indenylcarbonyl)-de(1-D-leucyl)lysobactin bistrifluoroacetate] (H-[Aic]L[Phe(3R-OH)][Leu(3R-OH)]L[dR]I[aThr]G[Asn(3S-OH)]S; ester 3-C) | 1 µg/mL (≈ 0.756 µM) | 2 µg/mL (≈ 1.51 µM) | 1 µg/mL (≈ 0.756 µM) | 1 µg/mL (≈ 0.756 µM) | –
CC[C@H](C)[C@@H]1NC(=O)[C@@H](CCCNC(=N)N)NC(=O)[C@H](CC(C)C)NC(=O)[C@H]([C@H](O)C(C)C)NC(=O)[C@@H](NC(=O)[C@H](CC(C)C)NC(=O)[C@H](N)CCCNC(=O)OCc2ccccc2)[C@@H](c2ccccc2)OC(=O)[C@H](CO)NC(=O)[C@H]([C@H](O)C(N)=O)NC(=O)CNC(=O)[C@H]([C@H](C)O)NC1=O [Example 62, N^6-[(Benzyloxy)carbonyl]-D-ornithyl-de(1-D-leucyl)lysobactin bistrifluoroacetate] (H-[dOrn](Cbz)L[Phe(3R-OH)][Leu(3R-OH)]L[dR]I[aThr]G[Asn(3S-OH)]S; ester 3-C) | 0.25 µg/mL (≈ 0.177 µM) | 0.5 µg/mL (≈ 0.354 µM) | 1 µg/mL (≈ 0.708 µM) | 0.5 µg/mL (≈ 0.354 µM) | –
CC[C@H](C)[C@@H]1NC(=O)[C@@H](CCCNC(=N)N)NC(=O)[C@H](CC(C)C)NC(=O)[C@H]([C@H](O)C(C)C)NC(=O)[C@@H](NC(=O)[C@H](CC(C)C)NC(=O)C2(N)CCCCC2)[C@@H](c2ccccc2)OC(=O)[C@H](CO)NC(=O)[C@H]([C@H](O)C(N)=O)NC(=O)CNC(=O)[C@H]([C@H](C)O)NC1=O [Example 57, N-(1-Aminocyclohexyl)carbonyl-de(1-D-leucyl)lysobactin bistrifluoroacetate] (H-[Ac6c]L[Phe(3R-OH)][Leu(3R-OH)]L[dR]I[aThr]G[Asn(3S-OH)]S; ester 3-C) | 0.5 µg/mL (≈ 0.388 µM) | 0.25 µg/mL (≈ 0.194 µM) | 1 µg/mL (≈ 0.776 µM) | 1 µg/mL (≈ 0.776 µM) | –
CC[C@H](C)[C@@H]1NC(=O)[C@@H](CCCNC(=N)N)NC(=O)[C@H](CC(C)C)NC(=O)[C@H]([C@H](O)C(C)C)NC(=O)[C@@H](NC(=O)[C@H](Cc2ccccc2)NC(=O)[C@H](N)Cc2ccccc2)[C@@H](c2ccccc2)OC(=O)[C@H](CO)NC(=O)[C@H]([C@H](O)C(N)=O)NC(=O)CNC(=O)[C@H]([C@H](C)O)NC1=O.O=C(O)C(F)(F)F.O=C(O)C(F)(F)F [Example 82, D-Phenylalanyl-L-phenylalanyl-de(1-D-leucyl-2-L-leucyl)lysobactine bistrifluoroacetate] (H-[dF]F[Phe(3R-OH)][Leu(3R-OH)]L[dR]I[aThr]G[Asn(3S-OH)]S; ester 3-C) | 0.125 µg/mL | 0.125 µg/mL | 1 µg/mL | 0.5 µg/mL | –
CC[C@H](C)[C@@H]1NC(=O)[C@@H](CCCNC(=N)N)NC(=O)[C@H](CC(C)C)NC(=O)[C@H]([C@H](O)C(C)C)NC(=O)[C@@H](NC(=O)[C@H](CC(C)C)NC(=O)[C@H](N)CC(C)C)[C@@H](c2ccccc2)OC(=O)[C@H](CO)NC(=O)[C@H]([C@H](O)C(N)=O)NC(=O)CNC(=O)[C@H]([C@H](C)O)NC1=O.O=C(O)C(F)(F)F.O=C(O)C(F)(F)F [Example 1A, D-Leucyl-N^1-{(3S,6S,12S,15S,18R,21S,24S,27S,28R)-6-[(1S)-2-amino-1-hydroxy-2-oxoethyl]-18-(3-{[amino(imino)methyl]amino}propyl)-12-[(1S)-1-hydroxyethyl]-3-(hydroxymethyl)-24-[(1R)-1-hydroxy-2-methylpropyl]-21-isobutyl-15-[(1S)-1-methylpropyl]-2,5,8,11,14,17,20,23,26-nonaoxo-28-phenyl-1-oxa-4,7,10,13,16,19,22,25-octaazacyclooctacosan-27-yl}-L-leucinamide bistrifluoro-acetate, reference compound] (H-[dL]L[Phe(3R-OH)][Leu(3R-OH)]L[dR]I[aThr]G[Asn(3S-OH)]S; ester 3-C) | 0.25 µg/mL | 0.063 µg/mL | 1 µg/mL | 0.5 µg/mL | –
CC[C@H](C)C1NC(=O)[C@@H](CCCNC(=N)N)NC(=O)[C@H](CC(C)C)NC(=O)[C@H]([C@H](O)C(C)C)NC(=O)[C@@H](NC(=O)[C@H](COCc2ccccc2)NC(=O)[C@H](N)CC(C)(C)C)[C@@H](c2ccccc2)OC(=O)[C@H](CO)NC(=O)[C@H]([C@H](O)C(N)=O)NC(=O)CNC(=O)[C@H]([C@H](C)O)NC1=O.O=C(O)C(F)(F)F.O=C(O)C(F)(F)F (stereo partly drawn) [Example 99, (3-tert-Butyl-D-alanyl-O-benzyl-L-seryl)-de(1-D-leucyl-2-L-leucyl)lysobactin bistrifluoroacetate] (H-[d(tBuAla)]S(Bn)[Phe(3R-OH)][Leu(3R-OH)]L[dR][ξIle][aThr]G[Asn(3S-OH)]S; ester 3-C) | 0.25 µg/mL | – | 0.063 µg/mL | 0.063 µg/mL | ≦0.063 μg/ml
CC[C@H](C)[C@@H]1NC(=O)[C@@H](CCCNC(=N)N)NC(=O)[C@H](CC(C)C)NC(=O)[C@H]([C@H](O)C(C)C)NC(=O)[C@@H](NC(=O)[C@H](CC(C)C)NC(=O)[C@H](N)Cc2ccccc2)[C@@H](c2ccccc2)OC(=O)[C@H](CO)NC(=O)[C@H]([C@H](O)C(N)=O)NC(=O)CNC(=O)[C@H]([C@H](C)O)NC1=O [Example 38, D-Phenylalanyl-de(1-D-leucyl)lysobactin bistrifluoracetate] (H-[dF]L[Phe(3R-OH)][Leu(3R-OH)]L[dR]I[aThr]G[Asn(3S-OH)]S; ester 3-C) | 0.125 µg/mL (≈ 0.0954 µM) | 0.063 µg/mL (≈ 0.0481 µM) | 1 µg/mL (≈ 0.763 µM) | 0.5 µg/mL (≈ 0.382 µM) | –

— patent US7368424B2, “Acylated nonadepsipeptides” (AiCuris GmbH & Co. KG, priority 2003, dated 2008)
